ChEMBL document CHEMBL5154865, “Antibiotic natural product hunanamycin A: Lead identification towards anti-Salmonella agents” (Eur J Med Chem, 2022)
Converted amounts (≈) assume the structure as drawn. Each block holds one compound with its values, some of them ahead of it.

Experiments:
[1] = system: Salmonella enterica; experiment: Antibacterial activity against Salmonella enterica ATCC 6539 assessed as microbial cell viability incubated for 24 hr by quantification of ATP multimode plate reader method; assay type: functional
[2] = Metabolic stability in human liver microsomes measured at 1 uM after 30 mins by LC-MS/MS analysis; assay type: ADME, Microsome; conditions: read-out: Stability
[3] = Solubility of compound in DMSO at pH 7.4 after 5 mins measured by HPLC analysis; assay type: physicochemical
[4] = Solubility of compound in DMSO at pH 10.2 after 5 mins measured by HPLC analysis; assay type: physicochemical
[5] = Stability in human plasma measured after 60 mins LC-MS/MS analysis; assay type: ADME, cell-free; conditions: read-out: Stability
[6] = Acute toxicity in Swiss albino mouse assessed as lethal dose administered orally daily for 14 days; conditions: in vivo, route po, time 14 day
[7] = Acute toxicity in Swiss albino mouse assessed as mortality at 2 g/Kg, po administered daily for 14 days; assay type: organism-based; conditions: in vivo, 2000 mg/kg, 336 h, time 14 day
[8] = Metabolic stability in mouse liver microsomes measured at 1 uM after 30 mins by LC-MS/MS analysis; assay type: ADME, Microsome; conditions: read-out: Stability
[9] = Solubility of compound in DMSO at pH 1.2 after 5 mins measured by HPLC analysis; assay type: physicochemical
[10] = Plasma protein binding in human measured at 150 uM preincubated for 30 mins followed by addition of dialysis buffer measured after 4 hrs by LC-MS/MS analysis; assay type: ADME, cell-free; conditions: read-out: PPB (converted)
[11] = Solubility of compound in DMSO at pH 2.2 after 5 mins measured by HPLC analysis; assay type: physicochemical
[12] = Solubility of compound in DMSO at pH 4.5 after 5 mins measured by HPLC analysis; assay type: physicochemical

SMILES: CC(C)=CCn1c(=O)c(=O)n(C[C@H](O)[C@H](O)[C@H](O)CO)c2cc(C)c(C)cc21
MIC [1]: 16 µg/mL (≈ 40.8 µM)

SMILES: CC1(C)CCn2c(=O)c(=O)n(CCO)c3cccc1c32
MIC [1]: 24 µg/mL (≈ 87.5 µM)

SMILES: Cc1cc2c3c(c1C)C(C)(C)CCn3c(=O)c(=O)n2C[C@H](O)[C@H](O)[C@H](O)CO
remaining at 0.5 h, 1 µM [2]: 100%
solubility at 5 min [3]: 49.4 µM (≈ 19.4 µg/mL)
solubility at 5 min [4]: 49.3 µM (≈ 19.3 µg/mL)
remaining at 1 h [5]: 100%
LD50 at 336 h [6]: > 2000 mg/kg
Activity [7]: Non-Toxic
remaining at 0.5 h, 1 µM [8]: 99.6%
MIC [1]: 8 µg/mL (≈ 20.4 µM)
solubility at 5 min [9]: 50.8 µM (≈ 19.9 µg/mL)
fraction unbound at 4 h, 150 µM [10]: 0.412
solubility at 5 min [11]: 50.4 µM (≈ 19.8 µg/mL)
solubility at 5 min [12]: 50 µM (≈ 19.6 µg/mL)

SMILES: CC1(C)CCn2c(=O)n(Cc3cn(CCO)nn3)c3cccc1c32
MIC [1]: 16 µg/mL (≈ 48.9 µM)

SMILES: CCOC(=O)Cn1c(=O)c(=O)n(C[C@H](O)[C@H](O)[C@H](O)CO)c2cc(C)c(C)cc21
MIC [1]: 16 µg/mL (≈ 39 µM)

SMILES: CC1(C)CCn2c(=O)c(=O)n(Cc3nn[nH]n3)c3cccc1c32
remaining at 0.5 h, 1 µM [2]: 98.9%
solubility at 5 min [3]: 51.8 µM (≈ 16.2 µg/mL)
solubility at 5 min [4]: 51.8 µM (≈ 16.2 µg/mL)
remaining at 1 h [5]: 99.9%
remaining at 0.5 h, 1 µM [8]: 96.1%
MIC [1]: 4 µg/mL (≈ 12.8 µM)
solubility at 5 min [9]: 51.8 µM (≈ 16.2 µg/mL)
fraction unbound at 4 h, 150 µM [10]: 0.0205
solubility at 5 min [11]: 51.2 µM (≈ 16 µg/mL)
solubility at 5 min [12]: 50.5 µM (≈ 15.8 µg/mL)

SMILES: CC1(C)CCn2c(=O)n(CC(O)CO)c3cccc1c32 (configuration not stated)
MIC [1]: 16 µg/mL (≈ 57.9 µM)

SMILES: CC1(C)CCn2c(=O)c(OC[C@H](O)[C@H](O)[C@H](O)CO)nc3cccc1c32
MIC [1]: 16 µg/mL (≈ 43.9 µM)

SMILES: CC1(C)CCn2c(=O)[nH]c(=O)c3cccc1c32
MIC [1]: 16 µg/mL (≈ 69.5 µM)

SMILES: Cc1cc2c3c(c1C)C(C)(C)CCn3c(=O)c(=O)n2CC(O)CO (configuration not stated)
MIC [1]: 16 µg/mL (≈ 48.1 µM)

SMILES: CC1(C)CCn2c(=O)n(C[C@H](O)[C@H](O)[C@H](O)CO)c3cccc1c32
remaining at 0.5 h, 1 µM [2]: 100%
solubility at 5 min [3]: 47.4 µM (≈ 15.9 µg/mL)
solubility at 5 min [4]: 47.6 µM (≈ 16 µg/mL)
remaining at 1 h [5]: 99.9%
remaining at 0.5 h, 1 µM [8]: 96.4%
MIC [1]: 4 µg/mL (≈ 11.9 µM)
solubility at 5 min [9]: 48.2 µM (≈ 16.2 µg/mL)
fraction unbound at 4 h, 150 µM [10]: 0.578
solubility at 5 min [11]: 48 µM (≈ 16.1 µg/mL)
solubility at 5 min [12]: 47.8 µM (≈ 16.1 µg/mL)

SMILES: CC1(C)CCn2c(=O)c(=O)n(CCCCO)c3cccc1c32
MIC [1]: 32 µg/mL (≈ 106 µM)

SMILES: CC1(C)CCn2c(=O)n(CCCO)c3cccc1c32
MIC [1]: > 32 µg/mL

SMILES: CC1(C)CCn2c(=O)c(=O)n(Cc3ccccc3)c3cccc1c32
MIC [1]: 32 µg/mL (≈ 99.9 µM)

SMILES: CO[C@@H]1O[C@H](Cn2c(=O)c(=O)n3c4c(cccc42)C(C)(C)CC3)[C@@H](O)[C@H]1O
MIC [1]: 16 µg/mL (≈ 42.5 µM)

SMILES: CC1(C)CCn2c(=O)c(=O)n(CC(=O)O)c3cccc1c32
MIC [1]: 16 µg/mL (≈ 55.5 µM)

SMILES: CC1(C)CCn2c(=O)c(=O)n(Cc3ccccn3)c3cccc1c32
MIC [1]: 24 µg/mL (≈ 74.7 µM)

SMILES: CC1(C)CCn2c(=O)c(=O)n(CCCO)c3cccc1c32
remaining at 0.5 h, 1 µM [2]: 100%
solubility at 5 min [3]: 50.1 µM (≈ 14.5 µg/mL)
solubility at 5 min [4]: 50.2 µM (≈ 14.5 µg/mL)
remaining at 1 h [5]: 82.4%
LD50 at 336 h [6]: > 2000 mg/kg
Activity [7]: Non-Toxic
remaining at 0.5 h, 1 µM [8]: 96.1%
MIC [1]: 1 µg/mL (≈ 3.47 µM)
solubility at 5 min [9]: 51.2 µM (≈ 14.8 µg/mL)
fraction unbound at 4 h, 150 µM [10]: 0.389
solubility at 5 min [11]: 50.8 µM (≈ 14.7 µg/mL)
solubility at 5 min [12]: 50.1 µM (≈ 14.4 µg/mL)

SMILES: CC1(C)CCn2c(=O)c(OCC(O)CO)nc3cccc1c32 (single isomer, unassigned)
MIC [1]: 16 µg/mL (≈ 52.6 µM)

SMILES: CO[C@@H]1O[C@H](Cn2cc(Cn3c(=O)c4cccc5c4n(c3=O)CCC5(C)C)nn2)[C@@H](O)[C@H]1O (single isomer, unassigned)
MIC [1]: > 32 µg/mL

SMILES: CC1(C)CCn2c(=O)c(=O)n(Cc3cn([C@@H]4OC(CO)C(O)C4O)nn3)c3cccc1c32 (single isomer, unassigned)
MIC [1]: 32 µg/mL (≈ 72.2 µM)

Second part, the compound after the results:

MIC [1]: 16 µg/mL (≈ 49 µM)
SMILES: Cn1nnc(Cn2c(=O)c(=O)n3c4c(cccc42)C(C)(C)CC3)n1

MIC [1]: 16 µg/mL (≈ 40.3 µM)
SMILES: CCOC(=O)Cn1cc(Cn2c(=O)c(=O)n3c4c(cccc42)C(C)(C)CC3)nn1

MIC [1]: > 32 µg/mL
SMILES: CC1(C)CCn2c(=O)n(Cc3nn[nH]n3)c3cccc1c32

MIC [1]: 32 µg/mL (≈ 66.2 µM)
SMILES: CO[C@@H]1O[C@H](Cn2cc(Cn3c(=O)c(=O)n4c5c(cccc53)C(C)(C)CC4)nn2)[C@H]2OC(=O)O[C@@H]12

MIC [1]: 8 µg/mL (≈ 25.3 µM)
SMILES: CCOC(=O)Cn1c(=O)c(=O)n2c3c(cccc31)C(C)(C)CC2

MIC [1]: 16 µg/mL (≈ 43.9 µM)
SMILES: CC1(C)CCn2c(=O)c(=O)n(C[C@H](O)[C@H](O)[C@H](O)CO)c3cccc1c32

MIC [1]: 32 µg/mL (≈ 85.5 µM)
SMILES: CO[C@@H]1O[C@H](Cn2c(=O)n3c4c(cccc42)C(C)(C)CC3)[C@H]2OC(=O)O[C@@H]12

MIC [1]: 32 µg/mL (≈ 69.9 µM)
SMILES: CO[C@@H]1O[C@H](Cn2cc(Cn3c(=O)c(=O)n4c5c(cccc53)C(C)(C)CC4)nn2)[C@@H](O)[C@H]1O

MIC [1]: 32 µg/mL (≈ 74 µM)
SMILES: Cc1cc2c(cc1C)n(C[C@H](O)[C@H](O)[C@H](O)CO)c(=O)c(=O)n2CC=C1CCCCC1

MIC [1]: 8 µg/mL (≈ 21.7 µM)
SMILES: CCOC(=O)Cn1cc(Cn2c(=O)n3c4c(cccc42)C(C)(C)CC3)nn1

MIC [1]: 8 µg/mL (≈ 18.4 µM)
SMILES: Cc1cc2c(cc1C)n(C[C@H](O)[C@H](O)[C@H](O)CO)c(=O)c(=O)n2CCC1CCCCC1

MIC [1]: 32 µg/mL (≈ 76.7 µM)
SMILES: CC1(C)CCn2c(=O)n(Cc3cn(C[C@H](O)[C@H](O)[C@H](O)CO)nn3)c3cccc1c32

remaining at 0.5 h, 1 µM [2]: 90%
solubility at 5 min [3]: 48.5 µM (≈ 16.9 µg/mL)
solubility at 5 min [4]: 48.6 µM (≈ 16.9 µg/mL)
remaining at 1 h [5]: 98%
remaining at 0.5 h, 1 µM [8]: 74.3%
MIC [1]: 2 µg/mL (≈ 5.74 µM)
solubility at 5 min [9]: 41.2 µM (≈ 14.4 µg/mL)
fraction unbound at 4 h, 150 µM [10]: 0.338
solubility at 5 min [11]: 48.4 µM (≈ 16.8 µg/mL)
solubility at 5 min [12]: 48.8 µM (≈ 17 µg/mL)
SMILES: CO[C@@H]1O[C@H](Cn2c(=O)n3c4c(cccc42)C(C)(C)CC3)[C@@H](O)[C@H]1O

MIC [1]: > 32 µg/mL
SMILES: Cc1cc2[nH]c(=O)c(=O)n(C[C@H](O)[C@H](O)[C@H](O)CO)c2cc1C

MIC [1]: 24 µg/mL (≈ 83.5 µM)
SMILES: CC1(C)CCn2c(=O)c(=O)n(CC(N)=O)c3cccc1c32

MIC [1]: > 32 µg/mL
SMILES: CO[C@@H]1O[C@H](Cn2c(=O)n3c4c(cccc42)C(C)(C)CC3)[C@@H](OC)[C@H]1OC

MIC [1]: 16 µg/mL (≈ 43.9 µM)
SMILES: C=CCn1c(=O)c(=O)n(C[C@H](O)[C@H](O)[C@H](O)CO)c2cc(C)c(C)cc21

MIC [1]: 16 µg/mL (≈ 69.5 µM)
SMILES: CC1(C)CCn2c(=O)c(=O)[nH]c3cccc1c32

MIC [1]: 16 µg/mL (≈ 52.2 µM)
SMILES: CC1(C)CCn2c(=O)n(C[C@H](O)[C@@H](O)CO)c3cccc1c32

MIC [1]: > 32 µg/mL
SMILES: CCn1c(=O)c(=O)n(C[C@H](O)[C@H](O)[C@H](O)CO)c2cc(C)c(C)cc21

MIC [1]: 24 µg/mL (≈ 89.4 µM)
SMILES: C#CCn1c(=O)c2cccc3c2n(c1=O)CCC3(C)C

MIC [1]: > 32 µg/mL
SMILES: CCOC(=O)Cn1cc(Cn2c(=O)c3cccc4c3n(c2=O)CCC4(C)C)nn1

MIC [1]: 32 µg/mL (≈ 107 µM)
SMILES: CCCCCn1c(=O)c(=O)n2c3c(cccc31)C(C)(C)CC2

MIC [1]: 8 µg/mL (≈ 20.4 µM)
SMILES: Cc1cc2nc(OC[C@H](O)[C@H](O)[C@H](O)CO)c(=O)n3c2c(c1C)C(C)(C)CC3

MIC [1]: 8 µg/mL (≈ 26.3 µM)
SMILES: CC1(C)CCn2c(=O)c(=O)n(CC(O)CO)c3cccc1c32 (configuration not stated)

MIC [1]: 32 µg/mL (≈ 77 µM)
SMILES: CC1(C)CCn2c(=O)n(Cc3cn([C@@H]4O[C@H](CO)[C@@H](O)[C@H]4O)nn3)c3cccc1c32

MIC [1]: > 32 µg/mL
SMILES: CC1(C)CCn2c(=O)n(Cc3cn([C@@H]4OC(CO)C(O)C4O)nn3)c(=O)c3cccc1c32 (single isomer, unassigned)
